# Patent US20130259807A1, “CELL CULTURE SCREEN FOR AGENTS THAT CONTROL ADIPOGENESIS AND MYOFIBROBLAST DIFFERENTIATION” (THE REGENTS OF THE UNIVERSITY OF CALIFORNIA, priority 2010, published 2013)
# Test system: rat mesenchymal stem cells
# Test: Culture screening adipogenesis assay (lipid accumulation, Oil Red O / BODIPY)
# Type: cell-based
# Conditions: insulin in the progressing medium, positive control set as 100%
# Protocol: To prepare adipogenesis initiation/priming medium, a IBMX standard solution ([…]) is diluted 1:1000 and a dexamethasone standard solution (1 μM dexamethasone standard solution (in DMSO)) is diluted 1:10,000 in DMEM+10% FCS. A typical cocktail of antibiotics can be added to restrict microbe growth. This initiation medium can be stored for up to 6 weeks at 4° C.
# To prepare positive control progression medium, a standard insulin solution (10 μg/ml insulin) is diluted 1:1000 in DMEM+10% FCS. Antibiotics of choice are added to control growth of microbes. This control progression medium can be stored for up to 6 weeks at 4° C.
# To prepare experimental/test (e.g., RHAMM blocking or other experimental adipogenic promoting reagent) progression medium, test agents are provided in a standard solution (e.g. 0.001-10 μg RHAMM antibody, peptide mimetic(s), or other test agent(s)). The test agent solution is diluted to the desired concentration (e.g. 1 ng-10 μg RHAMM peptide) in DMEM+10% FCS. […]
# Cells for the adipogenesis screen can be plated as follows: The cells are trypsinized and then resuspended in 1 ml DMEM+10% CS to neutralize the trypsin. The cells are then counted. […]
# The dye can be extracted with methanol:ethanol (1:1) mixture and read oil red O at 520 nm using an ELISA plate reader or for BODIPY® using a fluorometer that detects FITC.
substance,measurement,value
insulin,Extent of lipid accumulation (Oil Red O at 520 nm),100%
